Measured values as given in US10287615B2, “Sophorolactone production” (ECOVER CO-ORDINATION CENTER N.V., priority 2011, dated 2019).

Key:
[1] = Static surface tension, pending drop method on a Krüss DSA100 tensiometer; type: physicochemical; conditions: water 71.26
Description: The lactone obtained in Example 10 was partially hydrolysed in degrees ranging from 0 to 2 equivalents using potassium hydroxide. Partial alkaline hydrolysis in this context implies that less than 3 mol KOH were added per mol lactone. As a consequence only part of the 3 ester bonds, i.e. the lactonic bond and the two acetyl ester bonds, was hydrolysed and a mixture of various sophorolipids formed.
The static surface tension of the partial hydrolysates obtained in the above described experiment was measured according to the pending drop method on a Krüss DSA100 tensiometer.

[2] = Stain removal efficacy in automatic dishwashing on soil plates; conditions: for average Rw (Y reflection value for washed): 1.4% surfactant in base formula, 50° C. eco; for soil removal: Rw minus Rs
Description: A sophorolipid lactone sample obtained from the experiment described in Example 8 was centrifuged, spread out on Torck paper and allowed to air dry. The resulting solid was crushed with a coffee mill to a fine powder and dried further with compressed air to >98 wt %. This powder was compared as to its efficiency in automatic dishwashing versus a low foaming alkylpolyglucoside, in particular Simulsol AS48, available from Seppic SA, at equal active matter content. […] 20 gram of the base formula was dosed in a ZDF211 dishwasher. Program D 50° C. eco was run.
In the automatic dishwasher 7 types of soil plates (available from CFT, Vlaardingen, The Netherlands) mounted in a stainless steel holding frame were inserted.

[3] = Storage stability of non-aqueous sophorolactone solution, HPLC-ELSD; type: physicochemical; conditions: for acid sophorolipid peak (hydrolysis of lactone), share of the total peak area: 10 g sophorolactone in 90 g ethyllactate or isoamyl lactate
Description: Both samples were split in 50 ml samples and stored at 4° C. and at 40° C. respectively. After 2 months of storage they were analyzed with HPLC-ELSD. The results are as illustrated by the chromatograms depicted in FIG. 7 and FIG. 8. After 2 months of storage at either 4° C., result depicted in FIG. 7, or 40° C., result depicted in FIG. 8, of this non-aqueous sophorolactone solution only a negligible hydrolysis of lactone material occurred as evidenced by an acid sophorolipid peak appearing at 30.5 min in the grey overlay graph. This peak represents less than 1% of the total peak area.

Substance: sophorolactone
- Surface tension ([1]; Conc. 10 ppm): 71.00 mN/m
- Surface tension ([1]; Conc. 50 ppm): 66.21 mN/m
- Surface tension ([1]; Conc. 100 ppm): 63.02 mN/m
- Surface tension ([1]; Conc. 250 ppm): 47.67 mN/m
- Surface tension ([1]; Conc. 1000 ppm): 36.69 mN/m
- Surface tension ([1]; Conc. 2000 ppm): 36.26 mN/m
- Surface tension ([1]; Conc. 5000 ppm): 35.85 mN/m
- Surface tension ([1]; Conc. 10000 ppm): 35.33 mN/m
- Surface tension ([1]; Conc. 25000 ppm): 35.54 mN/m
- Surface tension ([1]; Conc. 50000 ppm): 35.14 mN/m
- soil removal rates, overall comparison ([2]; automatic dishwashing, equal active matter content, alkaline pH of about 9.8): superior to Simulsol AS48
- average Rw (Y reflection value for washed) ([2]; stain Cheese DM06): 41.9
- soil removal ([2]; stain Cheese DM06): 16.9
- average Rw (Y reflection value for washed) ([2]; stain Chocolate DM75): 24.9
- soil removal ([2]; stain Chocolate DM75): 7.1
- average Rw (Y reflection value for washed) ([2]; stain Coffee DM81): 77.5
- soil removal ([2]; stain Coffee DM81): 7.3
- average Rw (Y reflection value for washed) ([2]; stain Egg yolk/milk DM31): 52.0
- soil removal ([2]; stain Egg yolk/milk DM31): 6.8
- average Rw (Y reflection value for washed) ([2]; stain Mix starch DM77): 37.6
- soil removal ([2]; stain Mix starch DM77): 1.6
- average Rw (Y reflection value for washed) ([2]; stain Red wine DM51): 72.4
- soil removal ([2]; stain Red wine DM51): 17.1
- average Rw (Y reflection value for washed) ([2]; stain Tea DM11): 75.7
- soil removal ([2]; stain Tea DM11): 14.6
- storage stability of non-aqueous solution (chromatogram overlay) ([3]; 2 months of storage at 40° C.): storage stable
- acid sophorolipid peak (hydrolysis of lactone), share of the total peak area ([3]; 2 months of storage at 4° C.): less than 1%
- acid sophorolipid peak (hydrolysis of lactone), share of the total peak area ([3]; 2 months of storage at 40° C.): less than 1%
- storage stability of non-aqueous solution (chromatogram overlay) ([3]; storage at 4° C. for 2 months): storage stable
